Test systems include HCT-116 colon; HOP-62 NSCLC; HOP-92 NSCLC; KM12 colon; OVCAR-4 ovarian; RXF 393 renal; SF-539 CNS; SN12C renal; UACC-62 melanoma; NCI-H226 lung.
Holding throughout (experiment): NCI anticancer screen, dose series, 48 h

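1) Cells in 96-well plates. 2) Compound, 48 h, 5 concentrations. 3) Linear interpolation between surrounding doses. 4) Unreached endpoint = highest concentration. At the GI50, growth is halved. TGI: concentration producing complete growth inhibition.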

Regarding `C=C(CN1CCN(c2ccccn2)CC1)c1ccc(C(=O)Nc2ccccc2N)cc1`, the GI50 is 2.5 µM in the experiment on HCT-116 colon; 1.32 µM in the experiment with HOP-62 NSCLC; 5.7 µM in the experiment on HOP-92 NSCLC; 0.936 µM with KM12 colon; 6.35 µM in the experiment with OVCAR-4 ovarian; 1.55 µM in the experiment on RXF 393 renal. For the same compound, the GI50 is 1.5 µM in the experiment with SF-539 CNS, 2.35 µM in the experiment with SN12C renal and 1.41 µM with UACC-62 melanoma. The TGI with HCT-116 colon is 32.1 µM; in the experiment with HOP-62 NSCLC, above 50 µM; with HOP-92 NSCLC it was 23.1 µM; with KM12 colon, 3.12 µM; in the experiment with OVCAR-4 ovarian, above 50 µM; in the experiment with RXF 393 renal, 13 µM. Moreover, the TGI was 8.87 µM in the experiment on SF-539 CNS, above 50 µM in the experiment on SN12C renal and 9.99 µM with UACC-62 melanoma.
For `COc1ccccc1/C=C(\NC(=O)c1ccccc1)c1nc2ccccc2[nH]1`, the TGI is above 100 µM with HCT-116 colon; 72.5 µM in the experiment on HOP-92 NSCLC; above 100 µM in the experiment with KM12 colon; above 100 µM with OVCAR-4 ovarian; above 100 µM with RXF 393 renal; above 100 µM with SF-539 CNS. Moreover, the TGI in the experiment on SN12C renal and in the experiment with UACC-62 melanoma was above 100 µM throughout.
Turning to `COC(=O)N[C@@H](C)CNc1nccc(-c2cn(C(C)C)nc2-c2cc(Cl)cc(NS(C)(=O)=O)c2F)n1`, the GI50 is 0.662 µM in the experiment with HCT-116 colon; above 100 µM in the experiment on HOP-62 NSCLC; 70.1 µM with KM12 colon; above 100 µM with NCI-H226 lung; above 100 µM in the experiment with OVCAR-4 ovarian; 0.623 µM in the experiment on RXF 393 renal. For the same compound, the GI50 with SF-539 CNS is 62.6 µM; in the experiment on SN12C renal, above 100 µM. Moreover, the TGI was above 100 µM in the experiment with HCT-116 colon; above 100 µM in the experiment with HOP-62 NSCLC; above 100 µM in the experiment on KM12 colon; above 100 µM with NCI-H226 lung; above 100 µM in the experiment with OVCAR-4 ovarian; 23.3 µM in the experiment with RXF 393 renal. The TGI with SF-539 CNS and in the experiment with SN12C renal was above 100 µM in each case.
Turning to `COc1ccc(C2=NNC(c3sc(Cl)nc3Cl)C2)cc1` (centres undefined), the GI50 was 3.39 µM in the experiment with HCT-116 colon; 28.4 µM in the experiment with HOP-62 NSCLC; 5.56 µM in the experiment on KM12 colon; 2.85 µM in the experiment with NCI-H226 lung; 11.5 µM in the experiment with OVCAR-4 ovarian; 18.4 µM in the experiment with RXF 393 renal. In addition, the GI50 is 4.58 µM with SF-539 CNS, 4.02 µM in the experiment on SN12C renal and 6.94 µM with UACC-62 melanoma. In addition, the TGI in the experiment with HCT-116 colon was 14.9 µM; in the experiment on HOP-62 NSCLC, above 100 µM; in the experiment on KM12 colon, 19.8 µM; in the experiment with NCI-H226 lung it was above 100 µM; in the experiment with OVCAR-4 ovarian, 25.4 µM; in the experiment with RXF 393 renal, 46.8 µM. The TGI in the experiment with SF-539 CNS came out at 32 µM; in the experiment on SN12C renal, 16.7 µM; in the experiment with UACC-62 melanoma it was 21.1 µM.
As for `Cc1cc(O)c2c(c1)OC1(C)CCC3C(C)(C)CCCC34COC2C14` (centres undefined), the TGI was found to be 27.3 µM in the experiment on HCT-116 colon; 28.5 µM in the experiment on HOP-62 NSCLC; 35.3 µM in the experiment with KM12 colon; 31 µM in the experiment on NCI-H226 lung; 33.5 µM in the experiment with OVCAR-4 ovarian; 23.8 µM with SF-539 CNS. Moreover, the TGI with SN12C renal is 30.8 µM; with UACC-62 melanoma, 34.8 µM.
Turning to `CCOc1ccc2cc(-c3nn(CC4CCN(C)CC4)c4ncnc(N)c34)ccc2c1`, the GI50 was 12.1 µM in the experiment on HCT-116 colon; 5.9 µM with HOP-92 NSCLC; 18 µM with KM12 colon; 14.2 µM with NCI-H226 lung; 12.9 µM in the experiment with OVCAR-4 ovarian; 4.12 µM in the experiment on RXF 393 renal. The GI50 in the experiment with SF-539 CNS is 14.1 µM; with SN12C renal, 12 µM; with UACC-62 melanoma, 16.3 µM. In addition, the TGI in the experiment with HCT-116 colon was 28.1 µM; in the experiment with HOP-92 NSCLC it was 26.1 µM; in the experiment with KM12 colon, 45.2 µM; in the experiment on NCI-H226 lung, 40.3 µM; with OVCAR-4 ovarian it was 29.7 µM; in the experiment on RXF 393 renal, 18.6 µM. Further, the results for the TGI with SF-539 CNS, in the experiment with SN12C renal and in the experiment on UACC-62 melanoma were 27.2 µM, 32.1 µM and 32.5 µM, respectively.
On to `OC[C@H]1N[C@H](CO)[C@@H](O)[C@H]1O`, for which the TGI in the experiment with HCT-116 colon, in the experiment on HOP-62 NSCLC, with KM12 colon, in the experiment with NCI-H226 lung, with RXF 393 renal and in the experiment on SF-539 CNS was above 100 µM throughout. In addition, the TGI with SN12C renal and in the experiment with UACC-62 melanoma was above 100 µM each time.
Regarding `OC(Cc1cccc2ccccc12)CN1CCC(c2ccccc2)CC1` (centres undefined), the TGI in the experiment on HCT-116 colon turned out to be 28.7 µM; in the experiment with HOP-62 NSCLC, 30.2 µM; with HOP-92 NSCLC it was 27.4 µM; with KM12 colon, 33.7 µM; in the experiment with RXF 393 renal it was 23 µM; in the experiment with SF-539 CNS it was 31.1 µM. Also, the TGI in the experiment with SN12C renal turned out to be 30.6 µM; in the experiment on UACC-62 melanoma it was 28.9 µM.
With `N.N.N.N.O=S([O-])[O-].[Co+3].[N-]=[N+]=[N-]`, the GI50 in the experiment with HCT-116 colon, with HOP-62 NSCLC, with HOP-92 NSCLC, in the experiment with KM12 colon, in the experiment with OVCAR-4 ovarian and in the experiment with SF-539 CNS was above 100 µM throughout. In addition, the GI50 in the experiment with SN12C renal and in the experiment on UACC-62 melanoma was above 100 µM in each case. Besides, the TGI in the experiment with HCT-116 colon, in the experiment on HOP-62 NSCLC, in the experiment with HOP-92 NSCLC, in the experiment on KM12 colon, in the experiment on OVCAR-4 ovarian and in the experiment on SF-539 CNS was above 100 µM each time. Also, the TGI in the experiment on SN12C renal and in the experiment with UACC-62 melanoma was above 100 µM each time.
Regarding `COc1cc(N)c(Cl)cc1C(=O)N[C@@H]1CCN(CCCOc2ccc(F)cc2)C[C@@H]1OC`, the GI50 is 41.8 µM in the experiment on HCT-116 colon; 33.3 µM in the experiment with KM12 colon; above 100 µM in the experiment on NCI-H226 lung; above 100 µM in the experiment with OVCAR-4 ovarian; above 100 µM with RXF 393 renal; 66.2 µM in the experiment on SF-539 CNS. Besides, the GI50 is above 100 µM in the experiment on SN12C renal and 67.6 µM in the experiment on UACC-62 melanoma. In addition, the TGI with HCT-116 colon, in the experiment with KM12 colon, with NCI-H226 lung, in the experiment with OVCAR-4 ovarian, in the experiment on RXF 393 renal and in the experiment on SF-539 CNS was above 100 µM throughout. For the same compound, the TGI in the experiment on SN12C renal and in the experiment with UACC-62 melanoma was above 100 µM throughout.

These data come from PubChem BioAssay (NCI).
